Values of other authors as cited in patent publication US8333981B2, “Antifungal treatment of nails” (Humco Holding Group, Inc., priority 2007, dated 2012).
Where two headings read alike, the source gives them in different places.

Assays:
[1] = tested on: toenail fungus
[2] = tested on: onychomycosis of fingernails and toenails due to Trichophyton rubrum; details: after several months of use
[3] = tested on: dermatophyte isolates
[4] = tested on: C. albicans (monilia), C. neoformans, B. dermatitidis, A. israelii, H. capsulatum, C. immitis, M. furfur (tinea versicolor) and bacteria
[5] = tested on: chronic infections of the nails; details: human, in vivo
[6] = tested on: fungi known to cause onychomycosis
[7] = in vitro
[8] = not told
[9] = not told; remark: listed apart in the source
[10] = human, in vivo
[11] = in vivo, po

CC12CCC(CC1=O)C2(C)C (centres unmarked) [Camphor]
anti-fungal activity [1]: little or no detectable anti-fungal activity

Cc1cc(C2CCCCC2)n(O)c(=O)c1 [Ciclopirox, ciclopirox]
cure rate [2]: 14%

Clc1ccccc1C(c1ccccc1)(c1ccccc1)n1ccnc1 [Clotrimazole]
dermatophyte isolates being sensitive [3]: 30.55%

COC1=CC(=O)C[C@@H](C)[C@]12Oc1c(Cl)c(OC)cc(OC)c1C2=O [Griseofulvin, griseofulvin]
activity against listed organisms [4]: inactive
cure rates [5]: poor cure rates

CC1CCC(C(C)C)C(O)C1 (centres unmarked) [Menthol]
effect on fungi causing onychomycosis / toenail infection [6]: specifically inhibits the growth

O=C([O-])CS.[Na+] [Sodium Thioglycolate]
increase in flux compared to the control [7]: 3.8 fold

Cc1ccc(C(C)C)c(O)c1 [Thymol]
effect on fungi causing onychomycosis / toenail infection [6]: effective

Cc1cccc(N(C)C(=S)Oc2ccc3ccccc3c2)c1 [Tolnaftate]
dermatophyte isolates being sensitive [3]: 47.22%

NC(N)=O [Urea]
drug permeability compared to control [8]: significant increase

Clc1ccc(COC(Cn2ccnc2)c2ccc(Cl)cc2Cl)c(Cl)c1 (centres unmarked) [Water-soluble miconazole, miconazole]
dermatophyte isolates being sensitive [3]: 75%

CCO [ethanol]
average permeability coefficient [9]: 5.8+/−3.1×10(−3) cm hr-1

OC(Cn1cncn1)(Cn1cncn1)c1ccc(F)cc1F [fluconazole]
patients who experienced adverse events [10]: Sixteen

CCC(C)n1ncn(-c2ccc(N3CCN(c4ccc(OCC5COC(Cn6cncn6)(c6ccc(Cl)cc6Cl)O5)cc4)CC3)cc2)c1=O (centres unmarked) [itraconazole]
total observed incidence of adverse events possibly or directly drug-related [11]: 18.2%

CCCCCCCCO [n-octanol]
permeability coefficient: 0.075 ×10⁻⁶ cm/s

O [water]
permeability coefficient (not told): 4.58 ×10⁻⁶ cm/s
average permeability coefficient [9]: 16.5+/−5.9×10(−3) cm hr-1
